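Following 48 hours of exposure in 96-well plates, responses at five concentrations were used to interpolate endpoints linearly. TGI marks complete inhibition of growth.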
Experiments:
Experiment in all cases: NCI tumour cell line growth inhibition, 48 h
SF-268 CNS = tested on: SF-268 CNS
SK-OV-3 ovarian = tested on: SK-OV-3 ovarian
UACC-257 melanoma = tested on: UACC-257 melanoma
OVCAR-8 ovarian = tested on: OVCAR-8 ovarian
SF-295 CNS = tested on: SF-295 CNS
HCC-2998 colon = tested on: HCC-2998 colon
OVCAR-3 ovarian = tested on: OVCAR-3 ovarian
MOLT-4 leukemia = tested on: MOLT-4 leukemia
MDA-MB-435 = tested on: MDA-MB-435
K-562 leukemia = tested on: K-562 leukemia
U251 CNS = tested on: U251 CNS
A549 NSCLC = tested on: A549 NSCLC
SK-MEL-5 melanoma = tested on: SK-MEL-5 melanoma
CCRF-CEM leukemia = tested on: CCRF-CEM leukemia
IGROV1 ovarian = tested on: IGROV1 ovarian
HCT-116 colon = tested on: HCT-116 colon
MALME-3M melanoma = tested on: MALME-3M melanoma
MDA-N = tested on: MDA-N
HT29 colon = tested on: HT29 colon
TK-10 renal = tested on: TK-10 renal
BT-549 breast = tested on: BT-549 breast
NCI-H522 lung = tested on: NCI-H522 lung
MDA-MB-231 breast = tested on: MDA-MB-231 breast
KM12 colon = tested on: KM12 colon
SN12C renal = tested on: SN12C renal
HS 578T breast = tested on: HS 578T breast
786-0 renal = tested on: 786-0 renal
M14 melanoma = tested on: M14 melanoma
COLO 205 colon = tested on: COLO 205 colon
A498 renal = tested on: A498 renal
SR leukemia = tested on: SR leukemia
HCT-15 colon = tested on: HCT-15 colon
T-47D breast = tested on: T-47D breast
UO-31 renal = tested on: UO-31 renal
NCI-H226 lung = tested on: NCI-H226 lung
NCI-H460 lung = tested on: NCI-H460 lung
EKVX NSCLC = tested on: EKVX NSCLC
SF-539 CNS = tested on: SF-539 CNS
NCI-H23 lung = tested on: NCI-H23 lung
DU-145 prostate = tested on: DU-145 prostate
CAKI-1 renal = tested on: CAKI-1 renal
HOP-62 NSCLC = tested on: HOP-62 NSCLC
PC-3 prostate = tested on: PC-3 prostate
RPMI-8226 leukemia = tested on: RPMI-8226 leukemia
UACC-62 melanoma = tested on: UACC-62 melanoma
HL-60(TB) leukemia = tested on: HL-60(TB) leukemia
OVCAR-4 ovarian = tested on: OVCAR-4 ovarian
HOP-92 NSCLC = tested on: HOP-92 NSCLC
SK-MEL-28 melanoma = tested on: SK-MEL-28 melanoma
LOX IMVI melanoma = tested on: LOX IMVI melanoma
RXF 393 renal = tested on: RXF 393 renal
SNB-75 CNS = tested on: SNB-75 CNS
ACHN renal = tested on: ACHN renal
NCI/ADR-RES ovarian = tested on: NCI/ADR-RES ovarian
SNB-19 CNS = tested on: SNB-19 CNS
SW-620 colon = tested on: SW-620 colon
OVCAR-5 ovarian = tested on: OVCAR-5 ovarian
SK-MEL-2 melanoma = tested on: SK-MEL-2 melanoma

In the case of COc1ccc2c(c1)C(=O)C1(C2)[C@H](c2ccccc2)C2C(=O)c3cc(OC)ccc3C2[C@H]1c1ccccc1 (some centres undefined), the TGI (SF-268 CNS) is reported as over 100 µM, the TGI (SK-OV-3 ovarian) is reported as over 100 µM and the TGI (UACC-257 melanoma) is reported as over 100 µM. The TGI (OVCAR-8 ovarian) was over 100 µM, the TGI (SF-295 CNS) was over 100 µM and the TGI (HCC-2998 colon) was over 100 µM. For the same compound, the TGI (OVCAR-3 ovarian) was over 100 µM, the TGI (MOLT-4 leukemia) was over 100 µM and the TGI (MDA-MB-435) was over 100 µM. It also gave a TGI (K-562 leukemia) of over 100 µM, a TGI (U251 CNS) of over 100 µM and a TGI (A549 NSCLC) of over 100 µM. For the same compound, the TGI (SK-MEL-5 melanoma) was over 100 µM, the TGI (CCRF-CEM leukemia) was over 100 µM and the TGI (IGROV1 ovarian) was over 100 µM. For the same compound, the TGI (HCT-116 colon) was over 100 µM, the TGI (MALME-3M melanoma) was over 100 µM and the TGI (MDA-N) was over 100 µM. It also gave a TGI (HT29 colon) of over 100 µM, a TGI (TK-10 renal) of over 100 µM and a TGI (BT-549 breast) of over 100 µM. The TGI (NCI-H522 lung) was over 100 µM, the TGI (MDA-MB-231 breast) was over 100 µM and the TGI (KM12 colon) was over 100 µM. It also gave a TGI (SN12C renal) of over 100 µM, a TGI (HS 578T breast) of over 100 µM and a TGI (786-0 renal) of over 100 µM. It also gave a TGI (M14 melanoma) of over 100 µM, a TGI (COLO 205 colon) of over 100 µM and a TGI (A498 renal) of over 100 µM. For the same compound, the TGI (SR leukemia) was over 100 µM, the TGI (HCT-15 colon) was over 100 µM and the TGI (T-47D breast) was over 100 µM. For the same compound, the TGI (UO-31 renal) was over 100 µM, the TGI (NCI-H226 lung) was over 100 µM and the TGI (NCI-H460 lung) was over 100 µM. It also gave a TGI (EKVX NSCLC) of over 100 µM, a TGI (SF-539 CNS) of over 100 µM and a TGI (NCI-H23 lung) of over 100 µM. The TGI (DU-145 prostate) was over 100 µM, the TGI (CAKI-1 renal) was 5.63 µM and the TGI (HOP-62 NSCLC) was over 100 µM. It also gave a TGI (PC-3 prostate) of over 100 µM, a TGI (RPMI-8226 leukemia) of over 100 µM and a TGI (UACC-62 melanoma) of over 100 µM. It also gave a TGI (HL-60(TB) leukemia) of over 100 µM, a TGI (OVCAR-4 ovarian) of over 100 µM and a TGI (HOP-92 NSCLC) of over 100 µM. The TGI (SK-MEL-28 melanoma) was over 100 µM, the TGI (LOX IMVI melanoma) was over 100 µM and the TGI (RXF 393 renal) was over 100 µM. It also gave a TGI (SNB-75 CNS) of over 100 µM, a TGI (ACHN renal) of over 100 µM and a TGI (NCI/ADR-RES ovarian) of over 100 µM. For the same compound, the TGI (SNB-19 CNS) was over 100 µM, the TGI (SW-620 colon) was over 100 µM and the TGI (OVCAR-5 ovarian) was over 100 µM.

c1ccc2c(c1)N[C@@H]1c3[nH]c4ccccc4c3CC[C@H]21 showed a TGI (SF-268 CNS) of 65.1 µM, a TGI (SK-OV-3 ovarian) of 36.7 µM and a TGI (UACC-257 melanoma) of over 100 µM. It also gave a TGI (OVCAR-8 ovarian) of 25.6 µM, a TGI (SF-295 CNS) of 29.7 µM and a TGI (OVCAR-3 ovarian) of 27.3 µM. For the same compound, the TGI (MOLT-4 leukemia) was 42 µM, the TGI (MDA-MB-435) was 31.1 µM and the TGI (K-562 leukemia) was 27.8 µM. The TGI (U251 CNS) was 27.2 µM, the TGI (A549 NSCLC) was 41.4 µM and the TGI (SK-MEL-5 melanoma) was 27.3 µM. It also gave a TGI (CCRF-CEM leukemia) of 36.9 µM, a TGI (IGROV1 ovarian) of 20.9 µM and a TGI (HCT-116 colon) of 27.8 µM. It also gave a TGI (MALME-3M melanoma) of 22.1 µM, a TGI (MDA-N) of 39.2 µM and a TGI (HT29 colon) of 29.7 µM. For the same compound, the TGI (TK-10 renal) was over 100 µM, the TGI (BT-549 breast) was 37.7 µM and the TGI (NCI-H522 lung) was 24.2 µM. It also gave a TGI (MDA-MB-231 breast) of 29.9 µM, a TGI (KM12 colon) of 30.7 µM and a TGI (SN12C renal) of 28.5 µM. For the same compound, the TGI (HS 578T breast) was 25.9 µM, the TGI (786-0 renal) was 28.5 µM and the TGI (M14 melanoma) was 26.4 µM. The TGI (COLO 205 colon) was 27.9 µM, the TGI (A498 renal) was 32 µM and the TGI (HCT-15 colon) was 65.3 µM. It also gave a TGI (T-47D breast) of 76.2 µM, a TGI (UO-31 renal) of 37.2 µM and a TGI (NCI-H226 lung) of 31.6 µM. The TGI (NCI-H460 lung) was 33.9 µM, the TGI (EKVX NSCLC) was 37.2 µM and the TGI (SF-539 CNS) was 31.4 µM. For the same compound, the TGI (SK-MEL-2 melanoma) was 31.7 µM, the TGI (NCI-H23 lung) was 33 µM and the TGI (DU-145 prostate) was 35.3 µM. For the same compound, the TGI (CAKI-1 renal) was 38.6 µM, the TGI (HOP-62 NSCLC) was 26.9 µM and the TGI (PC-3 prostate) was 24.6 µM. The TGI (RPMI-8226 leukemia) was 59 µM, the TGI (UACC-62 melanoma) was 31.6 µM and the TGI (HL-60(TB) leukemia) was 36.2 µM. For the same compound, the TGI (HOP-92 NSCLC) was 30.6 µM, the TGI (SK-MEL-28 melanoma) was 35.3 µM and the TGI (LOX IMVI melanoma) was 29.5 µM. For the same compound, the TGI (RXF 393 renal) was 32.6 µM, the TGI (SNB-75 CNS) was 22.8 µM and the TGI (ACHN renal) was 68.1 µM. It also gave a TGI (NCI/ADR-RES ovarian) of 28 µM, a TGI (SNB-19 CNS) of 37.9 µM and a TGI (SW-620 colon) of 33.3 µM. The TGI (OVCAR-5 ovarian) was 29.4 µM.

For CN(C)c1nc2n(CCO)ccnc-2c(=O)n1, the TGI (SF-268 CNS) was over 100 µM, the TGI (SK-OV-3 ovarian) was over 100 µM and the TGI (UACC-257 melanoma) was over 100 µM. It also gave a TGI (OVCAR-8 ovarian) of over 100 µM, a TGI (SF-295 CNS) of over 100 µM and a TGI (HCC-2998 colon) of over 100 µM. It also gave a TGI (OVCAR-3 ovarian) of over 100 µM, a TGI (MOLT-4 leukemia) of over 100 µM and a TGI (MDA-MB-435) of over 100 µM. For the same compound, the TGI (K-562 leukemia) was over 100 µM, the TGI (U251 CNS) was over 100 µM and the TGI (A549 NSCLC) was over 100 µM. It also gave a TGI (SK-MEL-5 melanoma) of over 100 µM, a TGI (CCRF-CEM leukemia) of over 100 µM and a TGI (IGROV1 ovarian) of over 100 µM. The TGI (HCT-116 colon) was over 100 µM, the TGI (MALME-3M melanoma) was over 100 µM and the TGI (MDA-N) was over 100 µM. For the same compound, the TGI (HT29 colon) was over 100 µM, the TGI (TK-10 renal) was over 100 µM and the TGI (BT-549 breast) was over 100 µM. For the same compound, the TGI (NCI-H522 lung) was over 100 µM, the TGI (MDA-MB-231 breast) was over 100 µM and the TGI (KM12 colon) was over 100 µM. For the same compound, the TGI (SN12C renal) was over 100 µM, the TGI (HS 578T breast) was over 100 µM and the TGI (786-0 renal) was over 100 µM. It also gave a TGI (M14 melanoma) of over 100 µM, a TGI (COLO 205 colon) of over 100 µM and a TGI (A498 renal) of over 100 µM. It also gave a TGI (SR leukemia) of over 100 µM, a TGI (HCT-15 colon) of over 100 µM and a TGI (T-47D breast) of over 100 µM. The TGI (UO-31 renal) was over 100 µM, the TGI (NCI-H226 lung) was over 100 µM and the TGI (NCI-H460 lung) was over 100 µM. The TGI (EKVX NSCLC) was over 100 µM, the TGI (SF-539 CNS) was over 100 µM and the TGI (SK-MEL-2 melanoma) was over 100 µM. The TGI (NCI-H23 lung) was over 100 µM, the TGI (DU-145 prostate) was over 100 µM and the TGI (CAKI-1 renal) was over 100 µM. For the same compound, the TGI (HOP-62 NSCLC) was over 100 µM, the TGI (PC-3 prostate) was over 100 µM and the TGI (RPMI-8226 leukemia) was over 100 µM. For the same compound, the TGI (UACC-62 melanoma) was over 100 µM, the TGI (OVCAR-4 ovarian) was over 100 µM and the TGI (HOP-92 NSCLC) was over 100 µM. The TGI (SK-MEL-28 melanoma) was over 100 µM, the TGI (LOX IMVI melanoma) was over 100 µM and the TGI (RXF 393 renal) was over 100 µM. It also gave a TGI (SNB-75 CNS) of over 100 µM, a TGI (ACHN renal) of over 100 µM and a TGI (NCI/ADR-RES ovarian) of over 100 µM. It also gave a TGI (SNB-19 CNS) of over 100 µM, a TGI (SW-620 colon) of over 100 µM and a TGI (OVCAR-5 ovarian) of over 100 µM.
